Data from patent US12054497B2, “Substituted heterocyclic fused cyclic compound, preparation method therefor and pharmaceutical use thereof” (GENFLEET THERAPEUTICS (SHANGHAI) INC., priority 2019, dated 2024).
Like-named read-outs stand apart in the source and are kept apart here.

Key:
[1] = test system: phosphorylated ERK in MIA PaCa2 cells with Kras G12C mutation; test: p-ERK HTRF assay for cells (Test Example 2); type: cell-based, human
In short: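 MIA PaCa2 cells (2.5E4/well, seeded overnight) treated 2 h with compound in a 3.16-fold series at 0.1% DMSO. Cells lysed 30 min; p-ERK read by HTRF after 4 h antibody incubation. Inhibition relative to DMSO and blank; IC50 by four-parameter fit.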

[2] = test system: MIA PaCa-2 cells with Kras G12C mutation; test: Cell proliferation inhibition experiment, 3D spheroid, CellTiter-Glo (Test Example 3); type: cell-based, human; conditions: 5 days, read-out: MIA-PaCa2 IC50
In short: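 MIA PaCa-2 spheroids (200 cells/well) were formed overnight, then exposed for 5 days to compounds in 3.16-fold dilutions at 0.1% DMSO. Viability was read by CellTiter-Glo luminescence, and inhibition was normalised to DMSO control and medium blank. IC50 came from a four-parameter fit.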

KRas G12C = KRas G12C (Homo sapiens (Human), UniProt P01116, G12C); test: Nucleotide exchange assay (NEA)-HTRF, SOS1 catalyzed displacement of GDP by GTP (Test Example 4); type: biochemical
In short: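 His-tagged KRas G12C preloaded with DY647-GDP (40 nM working solution, with anti-His Tb) was preincubated 15 min with compound at 20 °C. SOS1/GTP (0.2 μM/200 μM working solution) was then added for 2 h in the dark. The HTRF 665/615 nm ratio gave inhibition relative to no-compound control and SOS1/GTP-free T0, with a four-parameter IC50 fit.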

[3] = Homo sapiens, MIA PaCa-2, 2 h, MIA PaCa2 cells, 2 hours with compound, read-out: p-ERK IC50
[4] = Homo sapiens, MIA PaCa-2, 120 h
[5] = MIA PaCa2 cells, 2 hours with compound, read-out: p-ERK IC50

Sequence of KRas G12C (P01116-2 other isoform, or with tags, fused parts or gaps G12C): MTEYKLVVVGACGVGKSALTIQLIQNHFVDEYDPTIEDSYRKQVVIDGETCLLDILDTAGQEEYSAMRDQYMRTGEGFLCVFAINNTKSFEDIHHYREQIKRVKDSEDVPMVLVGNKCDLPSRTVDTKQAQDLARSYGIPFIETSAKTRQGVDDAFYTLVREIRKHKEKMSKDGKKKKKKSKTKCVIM

C=CC(=O)N1CCN2c3c(c(=O)n(-c4c(C)ccnc4C(C)C)c4nc(-c5c(O)cccc5F)c(F)cc34)N(C)C(=O)[C@H]2C1 (single isomer, unassigned) [Compound Z9-2]
IC50 [1, 3]: 221 nM | IC50 [2, 4]: 17 nM | IC50 (KRas G12C): 115 nM

[2H]C([2H])([2H])N1C(=O)[C@H]2CN(C(=O)C=C)CCN2c2c1c(=O)n(-c1c(C)ccnc1C(C)C)c1nc(-c3c(O)cccc3F)c(Cl)cc21 (single isomer, unassigned) [Compound Z26-2]
IC50 ([1]; read-out: p-ERK IC50, MIA PaCa2 cells, 2 hours with compound): 62 nM | IC50 [2]: 5 nM | IC50 (KRas G12C): 40 nM

C=CC(=O)N1CCN2c3c(c(=O)n(-c4c(C)ccnc4C(C)C)c4nc(-c5c(O)cccc5F)c(Cl)cc34)N(C)C(=O)[C@H]2C1 (single isomer, unassigned) [Compound Z25-2]
IC50 ([1]; Homo sapiens, MIA PaCa-2, 2 h, read-out: p-ERK IC50, MIA PaCa2 cells, 2 hours with compound): 29 nM | IC50 ([2]; Homo sapiens, 120 h): 5 nM | IC50 (KRas G12C): 25 nM

C=CC(=O)N1CCN2c3c(c(=O)n(-c4c(C(C)C)ncnc4C(C)C)c4c(F)c(-c5c(O)cccc5F)c(Cl)cc34)NC(=O)[C@H]2C1 (single isomer, unassigned) [Compound Z37-1]
IC50 [1, 3]: 11 nM | IC50 [2, 4]: 2 nM | IC50 (KRas G12C): 11 nM

C=CC(=O)N1CCN2c3c(c(=O)n(-c4c(C(C)C)ncnc4C(C)C)c4nc(-c5c(O)cccc5F)c(Cl)cc34)N(C)C(=O)[C@H]2C1 [Compound Z48]
IC50 [1, 3]: 52 nM | IC50 [2, 4]: 6 nM

C=CC(=O)N1C[C@@H]2C(=O)N(C)c3c(c4cc(Cl)c(-c5c(O)cccc5F)nc4n(-c4c(C)ccnc4C(C)C)c3=O)N2C[C@H]1C (single isomer, unassigned) [Compound Z27-2]
IC50 [1, 5]: 11 nM | IC50 [2, 4]: 1 nM | IC50 (KRas G12C): 9 nM

C=CC(=O)N1CCN2c3c(c(=O)n(-c4c(C)ccnc4C(C)C)c4nc(-c5c(O)cccc5F)c(F)cc34)OC[C@H]2C1 [Compound Z1, (4aR)-3-acryloyl-11-fluoro-10-(2-fluoro-6-hydroxyphenyl)-8-(2-isopropyl-4-methylpyridin-3-yl)-1,2,3,4,4a,5-hexahydropyrazino[1′,2′:4,5][1,4]oxazino[2,3-c][1,8]naphthyridin-7(8H)-one]
IC50 [1, 3]: 432 nM | IC50 [2, 4]: 90 nM | IC50 (KRas G12C): 255 nM

C=CC(=O)N1C[C@@H]2C(=O)N(C)c3c(c4cc(F)c(-c5c(O)cccc5F)nc4n(-c4c(C)ccnc4C(C)C)c3=O)N2C[C@H]1C (single isomer, unassigned) [Compound Z10-2]
IC50 [1, 5]: 34 nM | IC50 [2, 4]: 8 nM | IC50 (KRas G12C): 37 nM
